Results from BigSolDB 2.1.

O=Cc1cccc([N+](=O)[O-])c1
solubility (mole fraction)
Conditions | in DMF | in acetic acid | in acetone | in acetonitrile | in cyclohexane | in ethanol | in ethyl acetate
273.15 K | 0.324 | – | 0.164 | 0.165 | – | 0.0358 | 0.146
275.65 K | 0.347 | – | 0.184 | 0.183 | – | 0.0416 | 0.164
278.15 K | 0.368 | – | 0.206 | 0.204 | – | 0.048 | 0.185
280.65 K | 0.393 | – | 0.231 | 0.226 | – | 0.0555 | 0.206
283.15 K | 0.419 | – | 0.258 | 0.251 | 0.00147 | 0.0637 | 0.229
285.65 K | 0.447 | – | 0.289 | 0.277 | 0.00175 | 0.0736 | –
288.15 K | 0.472 | – | 0.322 | 0.307 | 0.00204 | 0.0844 | –
290.65 K | 0.503 | 0.159 | 0.359 | 0.338 | 0.0024 | 0.0959 | –
293.15 K | 0.528 | 0.182 | 0.401 | 0.371 | 0.00283 | 0.109 | –
295.65 K | 0.561 | 0.206 | 0.445 | 0.409 | 0.00334 | 0.125 | –
298.15 K | 0.594 | 0.235 | 0.487 | 0.449 | 0.00394 | 0.141 | –
300.65 K | 0.627 | 0.267 | 0.534 | 0.49 | 0.00456 | 0.161 | –
303.15 K | 0.66 | 0.304 | 0.585 | 0.532 | 0.0053 | 0.183 | –
